Assays:
[1] = system: NALM-6; test: cells; format: functional, cell-based, Homo sapiens; settings: Homo sapiens, NALM-6;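 further: growth inhibition of NALM-6 cells, read out with a cell viability assay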
Description: SANGER: Inhibition of human NALM-6 cell growth in a cell viability assay.

[2] = system: D-336MG; test: cells; format: functional, cell-based, Homo sapiens; settings: Homo sapiens, D-336MG
Description: SANGER: Inhibition of human D-336MG cell growth in a cell viability assay.

[3] = system: NCI-H322M; test: cells; format: functional, cell-based, Homo sapiens; settings: Homo sapiens, NCI-H322M;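 further: cell viability assay measuring inhibition of growth of human NCI-H322M cells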
Description: SANGER: Inhibition of human NCI-H322M cell growth in a cell viability assay.

[4] = system: EW-22; test: cells; format: functional, cell-based, Homo sapiens; settings: Homo sapiens, EW-22;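 further: growth inhibition of the EW-22 cell line, measured with a cell viability readout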
Description: SANGER: Inhibition of human EW-22 cell growth in a cell viability assay.

[5] = system: COR-L279; test: SANGER: Inhibition of human COR-L279 cell growth in a cell viability assay.; format: functional, cell-based; settings: Homo sapiens, COR-L279
[6] = system: NCI-H889; test: cells; format: functional, cell-based, Homo sapiens; settings: Homo sapiens, NCI-H889;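 further: cell growth inhibition of the cell line, read out with a viability assay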
Description: SANGER: Inhibition of human NCI-H889 cell growth in a cell viability assay.

[7] = system: JIYOYE; test: cells; format: functional, cell-based, Homo sapiens; settings: Homo sapiens, JIYOYE
Description: SANGER: Inhibition of human JiyoyeP-2003 cell growth in a cell viability assay.

[8] = system: ST486; test: SANGER: Inhibition of human ST486 cell growth in a cell viability assay.; format: functional, cell-based; settings: Homo sapiens, ST486
[9] = system: ARH-77; test: cells; format: functional, cell-based, Homo sapiens; settings: Homo sapiens, ARH-77;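 further: growth inhibition of ARH-77 cells, read out by a cell viability assay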
Description: SANGER: Inhibition of human ARH-77 cell growth in a cell viability assay.

[10] = system: NB14; test: cells; format: functional, cell-based, Homo sapiens; settings: Homo sapiens, NB14;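 further: growth inhibition of NB14 cells measured with a cell viability assay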
Description: SANGER: Inhibition of human NB14 cell growth in a cell viability assay.

[11] = system: LB647-SCLC; test: cells; format: functional, cell-based, Homo sapiens; settings: Homo sapiens, LB647-SCLC;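 further: cell growth inhibition, read out by a viability assay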
Description: SANGER: Inhibition of human LB647-SCLC cell growth in a cell viability assay.

[12] = system: SNU-C1; test: cells; format: functional, cell-based, Homo sapiens; settings: Homo sapiens, SNU-C1;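 further: growth inhibition of SNU-C1 human cells, read out by a cell viability assay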
Description: SANGER: Inhibition of human SNU-C1 cell growth in a cell viability assay.

[13] = system: MRK-nu-1; test: cells; format: functional, cell-based, Homo sapiens; settings: Homo sapiens, MRK-nu-1;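 further: cell viability assay measuring growth suppression of human MRK-nu-1 cells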
Description: SANGER: Inhibition of human MRK-nu-1 cell growth in a cell viability assay.

[14] = system: MHH-CALL-2; test: cells; format: functional, cell-based, Homo sapiens; settings: Homo sapiens, MHH-CALL-2;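 further: growth inhibition of the cell line, read out in a cell viability assay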
Description: SANGER: Inhibition of human MHH-CALL-2 cell growth in a cell viability assay.

[15] = system: OE19; test: cells; format: functional, cell-based, Homo sapiens; settings: Homo sapiens, OE19;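 further: growth inhibition of OE19 cells, measured through a cell viability read-out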
Description: SANGER: Inhibition of human OE19 cell growth in a cell viability assay.

[16] = system: SW626; test: cells; format: functional, cell-based, Homo sapiens; settings: Homo sapiens, SW626;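 further: growth inhibition of SW626 cells, measured with a cell viability assay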
Description: SANGER: Inhibition of human SW626 cell growth in a cell viability assay.

[17] = system: J82; test: cells; format: functional, cell-based, Homo sapiens; settings: Homo sapiens, J82;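 further: growth inhibition of J82 cells, read out with a cell viability assay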
Description: SANGER: Inhibition of human J82 cell growth in a cell viability assay.

[18] = system: CAPAN-1; test: cells; format: functional, cell-based, Homo sapiens; settings: Homo sapiens, CAPAN-1;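 further: growth suppression of CAPAN-1 cells, read out by a cell viability assay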
Description: SANGER: Inhibition of human CAPAN-1 cell growth in a cell viability assay.

[19] = system: C3A; test: cells; format: functional, cell-based, Homo sapiens; settings: Homo sapiens, C3A;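 further: growth inhibition of C3A human cells, quantified with a cell viability readout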
Description: SANGER: Inhibition of human C3A cell growth in a cell viability assay.

[20] = system: BCPAP; test: cells; format: functional, cell-based, Homo sapiens; settings: Homo sapiens, BCPAP;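 further: growth inhibition of BCPAP cells, read out in a cell viability assay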
Description: SANGER: Inhibition of human BCPAP cell growth in a cell viability assay.

[21] = system: RD; test: cells; format: functional, cell-based, Homo sapiens; settings: Homo sapiens, RD
Description: SANGER: Inhibition of human RD cell growth in a cell viability assay.

[22] = system: BT-20; test: cells; format: functional, cell-based, Homo sapiens; settings: Homo sapiens, BT-20;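 further: cell viability assay measuring suppression of growth in human BT-20 cells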
Description: SANGER: Inhibition of human BT-20 cell growth in a cell viability assay.

[23] = system: NCI-H650; test: cells; format: functional, cell-based, Homo sapiens; settings: Homo sapiens, NCI-H650;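 further: growth inhibition of NCI-H650 cells, read out by a viability assay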
Description: SANGER: Inhibition of human NCI-H650 cell growth in a cell viability assay.

[24] = system: NCI-H1623; test: cells; format: functional, cell-based, Homo sapiens; settings: Homo sapiens, NCI-H1623;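 further: cell viability assay used as the read-out for growth inhibition of NCI-H1623 cells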
Description: SANGER: Inhibition of human NCI-H1623 cell growth in a cell viability assay.

[25] = system: SW948; test: cells; format: functional, cell-based, Homo sapiens; settings: Homo sapiens, SW948;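 further: growth inhibition of SW948 cells, read out with a cell viability assay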
Description: SANGER: Inhibition of human SW948 cell growth in a cell viability assay.

[26] = system: EFO-27; test: cells; format: functional, cell-based, Homo sapiens; settings: Homo sapiens, EFO-27;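 further: growth inhibition of EFO-27 cells, read out with a cell viability assay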
Description: SANGER: Inhibition of human EFO-27 cell growth in a cell viability assay.

[27] = system: DMS-273; test: cells; format: functional, cell-based, Homo sapiens; settings: Homo sapiens, DMS-273
Description: SANGER: Inhibition of human DMS-273 cell growth in a cell viability assay.

[28] = system: 23132-87; test: cells; format: functional, cell-based, Homo sapiens; settings: Homo sapiens
Description: SANGER: Inhibition of human 23132-87 cell growth in a cell viability assay.

[29] = system: FaDu; test: cells; format: functional, cell-based, Homo sapiens; settings: Homo sapiens, FaDu;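 further: cell viability readout of growth inhibition in FaDu cells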
Description: SANGER: Inhibition of human FADU cell growth in a cell viability assay.

[30] = system: NCI-H2452; test: cells; format: functional, cell-based, Homo sapiens; settings: Homo sapiens, NCI-H2452;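 further: growth inhibition of NCI-H2452 cells, read out with a cell viability assay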
Description: SANGER: Inhibition of human NCI-H2452 cell growth in a cell viability assay.

[31] = system: AGS; test: cells; format: functional, cell-based, Homo sapiens; settings: Homo sapiens, AGS;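 further: growth inhibition of AGS cells, determined with a cell viability assay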
Description: SANGER: Inhibition of human AGS cell growth in a cell viability assay.

[32] = system: TCC-SUP; test: cells; format: functional, cell-based, Homo sapiens; settings: Homo sapiens, TCC-SUP;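 further: growth inhibition of TCC-SUP cells, read out with a cell viability assay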
Description: SANGER: Inhibition of human TCCSUP cell growth in a cell viability assay.

[33] = system: P12-Ichikawa; test: cells; format: functional, cell-based, Homo sapiens; settings: Homo sapiens, P12-Ichikawa
[34] = system: CAL-72; test: cells; format: functional, cell-based, Homo sapiens; settings: Homo sapiens, CAL-72;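 further: cell viability assay measuring inhibition of proliferation in the CAL-72 cell line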
Description: SANGER: Inhibition of human CAL-72 cell growth in a cell viability assay.

[35] = system: NCI-H2405; test: cells; format: functional, cell-based, Homo sapiens; settings: Homo sapiens, NCI-H2405;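 further: growth inhibition of the human cell line, read out with a cell viability assay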
Description: SANGER: Inhibition of human NCI-H2405 cell growth in a cell viability assay.

[36] = system: HCC1395; test: cells; format: functional, cell-based, Homo sapiens; settings: Homo sapiens, HCC1395;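 further: growth inhibition of HCC1395 cells, read out by a cell viability assay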
Description: SANGER: Inhibition of human HCC1395 cell growth in a cell viability assay.

[37] = system: RERF-LC-MS; test: cells; format: functional, cell-based, Homo sapiens; settings: Homo sapiens, RERF-LC-MS;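 further: growth inhibition of human RERF-LC-MS cells, read out by a cell viability assay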
Description: SANGER: Inhibition of human RERF-LC-MS cell growth in a cell viability assay.

[38] = system: 5637; test: cells; format: functional, cell-based, Homo sapiens; settings: Homo sapiens
Description: SANGER: Inhibition of human 5637 cell growth in a cell viability assay.

[39] = system: NCI-H441; test: cells; format: functional, cell-based, Homo sapiens; settings: Homo sapiens, NCI-H441;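 further: growth inhibition of NCI-H441 cells, read out with a cell viability assay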
Description: SANGER: Inhibition of human NCI-H441 cell growth in a cell viability assay.

[40] = system: 8305C; test: cells; format: functional, cell-based, Homo sapiens; settings: Homo sapiens, 8305C
Description: SANGER: Inhibition of human 8305C cell growth in a cell viability assay.

[41] = system: HCC1419; test: cells; format: functional, cell-based, Homo sapiens; settings: Homo sapiens, HCC1419;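 further: growth inhibition of human HCC1419 cells, read out as cell viability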
Description: SANGER: Inhibition of human HCC1419 cell growth in a cell viability assay.

[42] = system: HTC-C3; test: cells; format: functional, cell-based, Homo sapiens; settings: Homo sapiens, HTC-C3;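 further: inhibition of cell growth, read out with a cell viability assay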
Description: SANGER: Inhibition of human HTC-C3 cell growth in a cell viability assay.

[43] = system: SW1710; test: cells; format: functional, cell-based, Homo sapiens; settings: Homo sapiens, SW1710;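 further: growth inhibition of SW1710 cells, determined with a cell viability assay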
Description: SANGER: Inhibition of human SW1710 cell growth in a cell viability assay.

[44] = system: SKG-IIIa; test: cells; format: functional, cell-based, Homo sapiens; settings: Homo sapiens, SKG-IIIa;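 further: cell growth inhibition, read out with a cell viability assay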
Description: SANGER: Inhibition of human SKG-IIIa cell growth in a cell viability assay.

[45] = system: SW48; test: cells; format: functional, cell-based, Homo sapiens; settings: Homo sapiens, SW48;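 further: growth inhibition of SW48 cells, read out with a cell viability assay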
Description: SANGER: Inhibition of human SW48 cell growth in a cell viability assay.

[46] = system: SiHa; test: cells; format: functional, cell-based, Homo sapiens; settings: Homo sapiens, SiHa;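 further: Viability-based readout of growth inhibition in SiHa cells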
Description: SANGER: Inhibition of human SiHa cell growth in a cell viability assay.

[47] = system: T-24; test: cells; format: functional, cell-based, Homo sapiens; settings: Homo sapiens, T-24;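 further: growth inhibition of T-24 cells, read out with a cell viability assay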
Description: SANGER: Inhibition of human T-24 cell growth in a cell viability assay.

[48] = system: CAL-120; test: cells; format: functional, cell-based, Homo sapiens; settings: Homo sapiens, CAL-120;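 further: cell growth inhibition, read out as cell viability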
Description: SANGER: Inhibition of human CAL-120 cell growth in a cell viability assay.

[49] = system: KU-19-19; test: cells; format: functional, cell-based, Homo sapiens; settings: Homo sapiens, KU-19-19
Description: SANGER: Inhibition of human KU-19-19 cell growth in a cell viability assay.

Row | Structure (SMILES) | IC50 [2] [µM] | IC50 [4] [µM] | IC50 [10] [µM] | IC50 [15] [µM] | IC50 [16] [µM] | IC50 [17] [µM] | IC50 [18] [µM] | IC50 [19] [µM] | IC50 [20] [µM] | IC50 [21] [µM] | IC50 [22] [µM] | IC50 [23] [µM] | IC50 [24] [µM] | IC50 [25] [µM] | IC50 [26] [µM] | IC50 [27] [µM] | IC50 [29] [µM] | IC50 [30] [µM] | IC50 [31] [µM] | IC50 [32] [µM] | further results
1 | COc1cc2ncn(-c3cc(OCc4ccccc4S(C)(=O)=O)c(C#N)s3)c2cc1OC [GSK-319347A] | > 5 | > 5 | > 5 | – | – | – | – | – | – | – | – | – | – | – | – | – | – | – | – | – | IC50 [1]: > 5 µM; IC50 [3]: > 5 µM; IC50 [5]: > 5 µM; IC50 [6]: > 5 µM; IC50 [7]: > 5 µM; IC50 [8]: > 5 µM; IC50 [9]: > 5 µM; IC50 [11]: > 5 µM; IC50 [12]: > 5 µM; IC50 [13]: > 5 µM; IC50 [14]: > 5 µM
2 | Nc1cccc2c1CN(C1CCC(=O)NC1=O)C2=O (stereo unspecified) [LENALIDOMIDE] | > 5 | > 5 | > 5 | > 5 | > 5 | > 5 | > 5 | > 5 | > 5 | > 5 | > 5 | > 5 | > 5 | > 5 | > 5 | > 5 | > 5 | > 5 | > 5 | > 5 | IC50 [28]: > 5 µM; IC50 [33]: > 5 µM; IC50 [34]: > 5 µM; IC50 [35]: > 5 µM; IC50 [36]: > 5 µM; IC50 [37]: > 5 µM; IC50 [38]: > 5 µM; IC50 [39]: > 5 µM; IC50 [40]: > 5 µM; IC50 [41]: > 5 µM; IC50 [42]: > 5 µM; IC50 [43]: > 5 µM; IC50 [44]: > 5 µM; IC50 [45]: > 5 µM; IC50 [46]: > 5 µM; IC50 [47]: > 5 µM; IC50 [48]: > 5 µM; IC50 [49]: > 5 µM
3 | CC1(C)CNc2cc(NC(=O)c3cccnc3NCc3ccncc3)ccc21 [MOTESANIB] | > 2 | > 2 | > 2 | > 2 | > 2 | > 2 | > 2 | > 2 | > 2 | > 2 | > 2 | > 2 | > 2 | > 2 | > 2 | > 2 | > 2 | > 2 | > 2 | > 2 | IC50 [33]: > 2 µM; IC50 [34]: > 2 µM; IC50 [35]: > 2 µM; IC50 [36]: > 2 µM; IC50 [37]: > 2 µM; IC50 [38]: > 2 µM; IC50 [39]: > 2 µM; IC50 [40]: > 2 µM; IC50 [41]: > 2 µM; IC50 [42]: > 2 µM; IC50 [43]: > 2 µM; IC50 [44]: > 2 µM; IC50 [45]: > 2 µM; IC50 [46]: > 2 µM; IC50 [47]: > 2 µM; IC50 [48]: > 2 µM; IC50 [49]: > 2 µM
4 | CCN(CC)CCCCNc1ncc2cc(-c3cc(OC)cc(OC)c3)c(NC(=O)NC(C)(C)C)nc2n1 [PD-173074] | > 2 | > 2 | > 2 | > 2 | > 2 | > 2 | > 2 | > 2 | > 2 | > 2 | > 2 | > 2 | > 2 | > 2 | > 2 | > 2 | > 2 | > 2 | > 2 | > 2 | IC50 [33]: > 2 µM; IC50 [34]: > 2 µM; IC50 [35]: > 2 µM; IC50 [36]: > 2 µM; IC50 [37]: > 2 µM; IC50 [38]: > 2 µM; IC50 [39]: > 2 µM; IC50 [40]: > 2 µM; IC50 [41]: > 2 µM; IC50 [42]: > 2 µM; IC50 [43]: > 2 µM; IC50 [44]: > 2 µM; IC50 [45]: > 2 µM; IC50 [46]: > 2 µM; IC50 [47]: > 2 µM; IC50 [48]: > 2 µM; IC50 [49]: > 2 µM
